From patent publication US20030224942A1, “Alkylamino-1,3,5-triazines, processes for their preparation and their use as herbicides and plant growth regulators” (priority 2001, published 2003)

What was measured:
[1] = tested on: Chenopodium spp., Papaver spp., Polygonum spp., Veronica spp. or Viola spp.; experiment: Post-emergence effect on weeds (greenhouse pot test, visual scoring); format: in vivo, monocotyledonous and dicotyledonous weeds; conditions: treated at three-leaf stage; visual scoring after about 3 to 4 weeks; application rate of 0.5 kg and less of active substance per hectare
[2] = tested on: Cyperus spp., Echinochloa spp., Digitaria spp., Sagitaria spp. and Scirpus spp.; experiment: Action on harmful plants in rice (paddy rice conditions, visual scoring); format: in vivo, typical rice weeds (gramineous and broad-leaved); conditions: applied into the dammed water, visual scoring about three weeks after application
Source text: Transplanted and sown rice and also typical rice weeds (gramineous and broad-leaved) are cultivated in closed plastic pots in a greenhouse to the three-leaf stage (Echinochloa crus-galli 1.5-leaf) under paddy rice conditions (dammed height of water: 2-3 cm). This is followed by treatment with the compounds according to the invention. […] After this treatment, the test plants are set up in a greenhouse under optimum growth conditions and are maintained in this way throughout the test period.

Compound | herbicidal activity post-emergence against harmful plants [1] | herbicidal activity against harmful plants which are typical for rice crops [2]
Cc1nc(N)nc(NCc2ccc(F)c(C(F)=C(F)F)c2)n1 [Product P1.5] | very good herbicidal activity | very good herbicidal activity
Cc1nc(N)nc(NCc2cc(F)c(C(F)=C(F)F)c(F)c2)n1 [Product P1.49] | very good herbicidal activity | very good herbicidal activity
C#Cc1cc(CNc2nc(C)nc(N)n2)ccc1F [Product P1.309] | very good herbicidal activity | very good herbicidal activity
C#Cc1c(F)cc(CNc2nc(C)nc(N)n2)cc1F [Product P1.352] | very good herbicidal activity | very good herbicidal activity
CC#Cc1cc(CNc2nc(C)nc(N)n2)ccc1F [Product P1.384] | very good herbicidal activity | very good herbicidal activity
CC#Cc1c(F)cc(CNc2nc(C)nc(N)n2)cc1F [Product P1.428] | very good herbicidal activity | very good herbicidal activity
Cc1nc(N)nc(NCc2ccc(F)c(C3CC3)c2)n1 [Product P1.916] | very good herbicidal activity | very good herbicidal activity
Cc1nc(N)nc(NCc2cc(F)c(C3CC3)c(F)c2)n1 [Product P1.960] | very good herbicidal activity | very good herbicidal activity
Cc1nc(N)nc(NCc2cccc(C(F)=C(F)F)c2)n1 [Product P1.1567] | very good herbicidal activity | very good herbicidal activity
Cc1nc(N)nc(NCc2ccc(C(F)=C(F)F)cc2)n1 [Product P1.1568] | very good herbicidal activity | very good herbicidal activity
C#Cc1cccc(CNc2nc(C)nc(N)n2)c1 [Product P1.1579] | very good herbicidal activity | very good herbicidal activity
C#Cc1ccc(CNc2nc(C)nc(N)n2)cc1 [Product P1.1580] | very good herbicidal activity | very good herbicidal activity
CC#Cc1cccc(CNc2nc(C)nc(N)n2)c1 [Product P1.1582] | very good herbicidal activity | very good herbicidal activity
CC#Cc1ccc(CNc2nc(C)nc(N)n2)cc1 [Product P1.1583] | very good herbicidal activity | very good herbicidal activity
Cc1nc(N)nc(NCc2cccc(C3CC3)c2)n1 [Product P1.1603] | very good herbicidal activity | very good herbicidal activity
Cc1nc(N)nc(NCc2ccc(C3CC3)cc2)n1 [Product P1.1604] | very good herbicidal activity | very good herbicidal activity
